Results reported in patent US7655454B1, “Bacteriological culture medium for Campylobacteriaceae species” (priority 2005, dated 2010).
Read-outs that look alike come from different tables or passages of the source.

Columns and labels:
Assay type in all cases: cell-based
[1] = system: Campylobacter coli ATCC 33559; conditions: P<0.05
[2] = system: Campylobacter jejuni subsp. jejuni ATCC 33560
[3] = system: Campylobacter jejuni PPMQ2b; conditions: P<0.05
[4] = system: Campylobacter jejuni PPMQ3b; conditions: P<0.05
[5] = approximately 30, 40, or 50 mM acid
[6] = approximately 20, 30, 40, or 50 mM acid, P<0.05
[7] = approximately 20, 30, 40, and 50 mM acid
[8] = any of the concentrations tested

Compound | absorbance compared with cultures in non-supplemented media [1, 5] | absorbance compared with cultures in non-supplemented media [2, 6] | absorbance compared with cultures grown in non-supplemented media ([4]; approximately 20 mM acid) | absorbance compared with cultures in non-supplemented media [1, 7] | acid concentration required to produce cultures with higher absorbance than in non-supplemented media [3] | absorbance compared with cultures grown in non-supplemented media [3, 8] | also measured
CC(O)C(=O)O (racemic) [Lactic, DL-lactic acid] | significantly greater | significantly higher | significantly greater | – | – | – | absorbance compared with cultures grown in non-supplemented media ([3]; approximately 20, 30, 40, or 50 mM acid): significantly greater
O=C(O)CC(O)C(=O)O (racemic) [Malic, DL-malic acid] | – | significantly higher | – | significantly higher | approximately 40 mM | – | acid concentration required to produce cultures with significantly higher absorbances than in non-supplemented media [4]: approximately 20 mM
O=C(O)CC(O)(CC(=O)O)C(=O)O [Citric, citric acid] | – | – | small but significantly higher | – | – | not significantly different | absorbance compared with isolates grown in non-supplemented media ([1]; approximately 50 mM acid): not significantly different; growth compared with non-supplemented media ([1]; approximately 30 or 40 mM acid): significantly more growth; growth compared with non-supplemented media [2]: significantly more growth; absorbance compared with isolates grown in non-supplemented media ([2]; approximately 50 mM acid, P<0.05): not significantly different
O=C(O)/C=C/C(=O)O [Fumaric, fumaric acid] | – | significantly higher | significantly higher | significantly higher | approximately 30 mM | – | –
O=C(O)CCC(=O)O [Succinic, succinic acid] | significantly higher | – | – | – | – | none of the concentrations of succinic acid produced significantly higher absorbances | absorbance compared with cultures in non-supplemented media ([2]; approximately 30, 40, or 50 mM acid, P<0.05): significantly higher; absorbance compared with cultures grown in non-supplemented media ([4]; approximately 40 and 50 mM acid): significantly higher
